{"source": "paper PMC5218480", "about": "(PLoS ONE, 2017)", "system": "MV-4-11 cells", "experiment": "Gene expression microarray analysis (Affymetrix PrimeView) and GSEA", "format": "cell-based, human", "design": "RFU PODN (11730768_x_at) / Fold change /veh PODN (11730768_x_at) / RFU LINC00158 (11744669_a_at) / Fold change /veh LINC00158 (11744669_a_at) / RFU DUSP10 (11751237_a_at) / Fold change /veh DUSP10 (11751237_a_at) / RFU ID3 (11757404_x_at) / Fold change /veh ID3 (11757404_x_at) / RFU PLEKHG5 (11737974_s_at) / Fold change /veh PLEKHG5 (11737974_s_at) / RFU LRRC4B (11730491_at) / Fold change /veh LRRC4B (11730491_at) / RFU GIMAP4 (11747438_a_at) / Fold change /veh GIMAP4 (11747438_a_at) / RFU KRT8 (11758183_x_at) / Fold change /veh KRT8 (11758183_x_at) / RFU CNN1 (11734310_a_at) / Fold change /veh CNN1 (11734310_a_at) / RFU VPS37D (11726825_at) / Fold change /veh VPS37D (11726825_at) / RFU C10orf10 (11716522_x_at) / Fold change /veh C10orf10 (11716522_x_at) / RFU KIR2DL2 /// KIR2DL4 /// KIR2DL5A /// KIR2DL5B /// KIR2DS1 /// KIR2DS2 /// KIR2DS3 /// KIR2DS4 /// KIR3DL3 /// KIR3DL3 /// KIR3DS1 (11738374_at) / Fold change /veh KIR2DL2 /// KIR2DL4 /// KIR2DL5A /// KIR2DL5B /// KIR2DS1 /// KIR2DS2 /// KIR2DS3 /// KIR2DS4 /// KIR3DL3 /// KIR3DL3 /// KIR3DS1 (11738374_at) / RFU C1QL1 (11718748_at) / Fold change /veh C1QL1 (11718748_at) / RFU TMPRSS4 (11747572_a_at) / Fold change /veh TMPRSS4 (11747572_a_at) / RFU HAMP (11756126_x_at) / Fold change /veh HAMP (11756126_x_at) / RFU RNFT2 (11725882_a_at) / Fold change /veh RNFT2 (11725882_a_at) / RFU NR4A2 (11747474_a_at) / Fold change /veh NR4A2 (11747474_a_at) / RFU ABCC12 (11746883_a_at) / Fold change /veh ABCC12 (11746883_a_at) / RFU TMEM136 (11760407_x_at) / Fold change /veh TMEM136 (11760407_x_at) / RFU CLDN22 /// WWC2 (11732394_at) / Fold change /veh CLDN22 /// WWC2 (11732394_at) / RFU HLA-DPB1 (11760878_x_at) / Fold change /veh HLA-DPB1 (11760878_x_at) / RFU SPINT1 (11716480_a_at) / Fold change /veh SPINT1 (11716480_a_at) / RFU GAP43 (11754022_s_at) / Fold change /veh GAP43 (11754022_s_at) / RFU A4GNT (11735810_at) / Fold change /veh A4GNT (11735810_at) / RFU PRB3 (11715151_x_at) / Fold change /veh PRB3 (11715151_x_at) / RFU TUBB4B (11761932_at) / Fold change /veh TUBB4B (11761932_at) / RFU CAPN14 (11732068_a_at) / Fold change /veh CAPN14 (11732068_a_at) / RFU TMCC2 (11721928_a_at) / Fold change /veh TMCC2 (11721928_a_at) / RFU IRGQ (11745062_a_at) / Fold change /veh IRGQ (11745062_a_at) / RFU FAM174B (11720279_a_at) / Fold change /veh FAM174B (11720279_a_at) / RFU TMPRSS4 (11748680_a_at) / Fold change /veh TMPRSS4 (11748680_a_at) / RFU FAM212B (11763350_a_at) / Fold change /veh FAM212B (11763350_a_at) / RFU PLEKHG5 (11743358_a_at) / Fold change /veh PLEKHG5 (11743358_a_at) / RFU ZSCAN30 (11745921_a_at) / Fold change /veh ZSCAN30 (11745921_a_at) / RFU CMKLR1 (11741424_a_at) / Fold change /veh CMKLR1 (11741424_a_at) / RFU LOC101060620 /// MAPK8IP1 (11723275_at) / Fold change /veh LOC101060620 /// MAPK8IP1 (11723275_at) / RFU SPTSSB (11747773_x_at) / Fold change /veh SPTSSB (11747773_x_at) / RFU PRSS12 (11739890_at) / Fold change /veh PRSS12 (11739890_at) / RFU BIN1 (11741810_x_at) / Fold change /veh BIN1 (11741810_x_at) / RFU WNT11 (11732464_a_at) / Fold change /veh WNT11 (11732464_a_at) / RFU C10orf10 (11716521_a_at) / Fold change /veh C10orf10 (11716521_a_at) / RFU C5orf56 (11738089_at) / Fold change /veh C5orf56 (11738089_at) / RFU CYB561 (11721691_x_at) / Fold change /veh CYB561 (11721691_x_at) / RFU ANKRD19P (11752326_a_at) / Fold change /veh ANKRD19P (11752326_a_at) / RFU OR2T12 /// OR2T33 /// OR2T8 (11738714_s_at) / Fold change /veh OR2T12 /// OR2T33 /// OR2T8 (11738714_s_at) / RFU VCAN (11748164_a_at) / Fold change /veh VCAN (11748164_a_at) / RFU JSRP1 (11732532_at) / Fold change /veh JSRP1 (11732532_at) / RFU KRTAP10-11 (11738290_x_at) / Fold change /veh KRTAP10-11 (11738290_x_at) / RFU MYO3A (11730013_a_at) / Fold change /veh MYO3A (11730013_a_at) / RFU EBF3 (11725865_a_at) / Fold change /veh EBF3 (11725865_a_at) / RFU CAMK2N1 (11719241_x_at) / Fold change /veh CAMK2N1 (11719241_x_at) / RFU C5orf56 (11738088_a_at) / Fold change /veh C5orf56 (11738088_a_at) / RFU OLFML3 (11715873_a_at) / Fold change /veh OLFML3 (11715873_a_at) / RFU LOC100653217 /// NTM (11731650_a_at) / Fold change /veh LOC100653217 /// NTM (11731650_a_at) / RFU MAPK11 (11762145_a_at) / Fold change /veh MAPK11 (11762145_a_at) / RFU FIZ1 (11724087_x_at) / Fold change /veh FIZ1 (11724087_x_at) / RFU OASL (11726364_x_at) / Fold change /veh OASL (11726364_x_at) / RFU SOX15 (11748057_x_at) / Fold change /veh SOX15 (11748057_x_at) / RFU CD79A (11719716_a_at) / Fold change /veh CD79A (11719716_a_at) / RFU HIST1H1D (11736915_at) / Fold change /veh HIST1H1D (11736915_at) / RFU CASKIN2 (11723855_a_at) / Fold change /veh CASKIN2 (11723855_a_at) / RFU LOC730098 (11760151_x_at) / Fold change /veh LOC730098 (11760151_x_at) / RFU OR4N2 (11742367_at) / Fold change /veh OR4N2 (11742367_at) / RFU PRRT2 (11749266_a_at) / Fold change /veh PRRT2 (11749266_a_at) / RFU SNX32 (11753110_a_at) / Fold change /veh SNX32 (11753110_a_at) / RFU CDHR5 (11726645_a_at) / Fold change /veh CDHR5 (11726645_a_at) / RFU RCAN1 (11760418_a_at) / Fold change /veh RCAN1 (11760418_a_at) / RFU FAM167A (11723789_a_at) / Fold change /veh FAM167A (11723789_a_at) / RFU FAM26E (11764081_at) / Fold change /veh FAM26E (11764081_at) / RFU ISYNA1 (11749810_s_at) / Fold change /veh ISYNA1 (11749810_s_at) / RFU ACY1 (11761880_at) / Fold change /veh ACY1 (11761880_at) / RFU 11764098_at / Fold change /veh 11764098_at / RFU SAMD14 (11745864_x_at) / Fold change /veh SAMD14 (11745864_x_at) / RFU NPB (11741838_a_at) / Fold change /veh NPB (11741838_a_at) / RFU TMPRSS6 (11731388_a_at) / Fold change /veh TMPRSS6 (11731388_a_at) / RFU KRTAP10-2 (11738614_at) / Fold change /veh KRTAP10-2 (11738614_at) / RFU ARHGAP8 /// PRR5-ARHGAP8 (11727945_x_at) / Fold change /veh ARHGAP8 /// PRR5-ARHGAP8 (11727945_x_at) / RFU KRTAP5-7 /// NADSYN1 (11734609_at) / Fold change /veh KRTAP5-7 /// NADSYN1 (11734609_at) / RFU RASL12 (11751679_a_at) / Fold change /veh RASL12 (11751679_a_at) / RFU CDKN2B (11736163_a_at) / Fold change /veh CDKN2B (11736163_a_at) / RFU PRF1 (11729649_at) / Fold change /veh PRF1 (11729649_at) / RFU, ZNF638 /// ZNF638-IT1 / Fold change vs veh, ZNF638 /// ZNF638-IT1 / RFU, PANK3 / Fold change vs veh, PANK3 / RFU, SH3YL1 / Fold change vs veh, SH3YL1 / RFU, ZEB2 / Fold change vs veh, ZEB2 / RFU, NRIP1 / Fold change vs veh, NRIP1 / RFU, PTTG1IP / Fold change vs veh, PTTG1IP / RFU, CAPN2 / Fold change vs veh, CAPN2 / RFU, MED14 / Fold change vs veh, MED14 / RFU, SNORA58 / Fold change vs veh, SNORA58 / RFU, C1orf63 / Fold change vs veh, C1orf63 / RFU, LRRFIP1 / Fold change vs veh, LRRFIP1 / RFU, NDUFAF7 / Fold change vs veh, NDUFAF7 / RFU, SLC12A2 / Fold change vs veh, SLC12A2 / RFU, IBTK / Fold change vs veh, IBTK / RFU, ESF1 / Fold change vs veh, ESF1 / Fold change vs veh, TMEM50B / RFU, TAOK1 / Fold change vs veh, TAOK1 / RFU, ACBD3 / Fold change vs veh, ACBD3 / RFU, TMA16 / Fold change vs veh, TMA16 / RFU, RWDD3 / Fold change vs veh, RWDD3 / RFU, BCAT1 / Fold change vs veh, BCAT1 / RFU, EDEM3 / Fold change vs veh, EDEM3 / RFU, TMEM33 / Fold change vs veh, TMEM33 / RFU, WDR75 / Fold change vs veh, WDR75 / RFU, AHCTF1 / Fold change vs veh, AHCTF1 / RFU, TFRC / Fold change vs veh, TFRC / RFU, ZDHHC17 / Fold change vs veh, ZDHHC17 / RFU, NOM1 / Fold change vs veh, NOM1 / RFU, ARL8B / Fold change vs veh, ARL8B / RFU, ZBTB11 / Fold change vs veh, ZBTB11 / RFU, TAMM41 / Fold change vs veh, TAMM41 / RFU, KIAA1704 /// LOC100996395 / Fold change vs veh, KIAA1704 /// LOC100996395 / RFU, ING1 / Fold change vs veh, ING1 / RFU, TRMT61B / Fold change vs veh, TRMT61B / RFU, FUBP3 / Fold change vs veh, FUBP3 / RFU, TP53 / Fold change vs veh, TP53 / RFU, TNKS2 / Fold change vs veh, TNKS2 / RFU, ZFP14 / Fold change vs veh, ZFP14 / RFU, ACTR2 / Fold change vs veh, ACTR2 / RFU, PPP3R1 / Fold change vs veh, PPP3R1 / RFU, PIK3R1 / Fold change vs veh, PIK3R1 / RFU, HNRNPA1 / Fold change vs veh, HNRNPA1 / RFU, RNF170 / Fold change vs veh, RNF170 / RFU, ZNF28 / Fold change vs veh, ZNF28 / RFU, RNGTT / Fold change vs veh, RNGTT / RFU, OGT / Fold change vs veh, OGT / RFU, BRD1 / Fold change vs veh, BRD1 / RFU, MARS / Fold change vs veh, MARS / RFU, ZNF655 / Fold change vs veh, ZNF655 / RFU, FAHD1 / Fold change vs veh, FAHD1 / RFU, BDP1 / Fold change vs veh, BDP1 / RFU, LRRCC1 / Fold change vs veh, LRRCC1 / RFU, ARID1A / Fold change vs veh, ARID1A / RFU, ZNF146 / Fold change vs veh, ZNF146 / RFU, ZNF330 / Fold change vs veh, ZNF330 / RFU, GPN3 / Fold change vs veh, GPN3 / RFU, C9orf123 / Fold change vs veh, C9orf123 / RFU, N4BP2L2 / Fold change vs veh, N4BP2L2 / RFU, ARFIP1 / Fold change vs veh, ARFIP1 / RFU, FAM179B / Fold change vs veh, FAM179B / RFU, BCL10 / Fold change vs veh, BCL10 / RFU, UHRF1BP1L / Fold change vs veh, UHRF1BP1L / RFU, BET1 / Fold change vs veh, BET1 / RFU, CNOT2 / Fold change vs veh, CNOT2 / RFU, ZNF268 / Fold change vs veh, ZNF268 / Fold change vs veh, ZNF507 / RFU, DGCR2 / Fold change vs veh, DGCR2 / RFU, WDSUB1 / Fold change vs veh, WDSUB1 / Fold change vs veh, HSP90B1 /// MIR3652 / RFU, ADSS / Fold change vs veh, ADSS / RFU, GK / Fold change vs veh, GK / RFU, ZNF148 / Fold change vs veh, ZNF148 / RFU, TAF9 / Fold change vs veh, TAF9 / RFU, SLC1A5 / Fold change vs veh, SLC1A5 / RFU, SLMO2 / Fold change vs veh, SLMO2 / RFU, ABCC4 / Fold change vs veh, ABCC4 / RFU, LOC101060439 /// RAP1B / Fold change vs veh, LOC101060439 /// RAP1B / RFU, RFX7 / Fold change vs veh, RFX7 / RFU, GTPBP10 / Fold change vs veh, GTPBP10 / RFU, CNEP1R1 / Fold change vs veh, CNEP1R1 / RFU, BIVM-ERCC5 /// ERCC5 / Fold change vs veh, BIVM-ERCC5 /// ERCC5 / RFU, ILF3 / Fold change vs veh, ILF3 / RFU 11762660_at / Fold change /veh 11762660_at / RFU VCAN (11757783_s_at) / Fold change /veh VCAN (11757783_s_at) / RFU DDX43 (11728927_at) / Fold change /veh DDX43 (11728927_at) / RFU KRT8 (11758188_x_at) / Fold change /veh KRT8 (11758188_x_at) / RFU NKD1 (11759106_at) / Fold change /veh NKD1 (11759106_at) / RFU SRD5A1 (11742802_a_at) / Fold change /veh SRD5A1 (11742802_a_at) / RFU TPSAB1 /// TPSB2 (11721975_s_at) / Fold change /veh TPSAB1 /// TPSB2 (11721975_s_at) / RFU GSTM3 (11746129_a_at) / Fold change /veh GSTM3 (11746129_a_at) / RFU IL23R (11737362_x_at) / Fold change /veh IL23R (11737362_x_at) / RFU TMEM51 (11727254_a_at) / Fold change /veh TMEM51 (11727254_a_at) / RFU PIWIL2 (11732686_x_at) / Fold change /veh PIWIL2 (11732686_x_at) / RFU ORM1 (11744905_x_at) / Fold change /veh ORM1 (11744905_x_at) / RFU CCDC152 (11743942_at) / Fold change /veh CCDC152 (11743942_at) / RFU ECM1 (11717891_a_at) / Fold change /veh ECM1 (11717891_a_at) / RFU IL23R (11748794_a_at) / Fold change /veh IL23R (11748794_a_at) / RFU TNFAIP8L3 (11732012_x_at) / Fold change /veh TNFAIP8L3 (11732012_x_at) / RFU MBOAT4 (11741988_at) / Fold change /veh MBOAT4 (11741988_at) / RFU 11764193_at / Fold change /veh 11764193_at / RFU TMEM53 (11763286_at) / Fold change /veh TMEM53 (11763286_at) / RFU MAGEB2 (11727129_at) / Fold change /veh MAGEB2 (11727129_at) / RFU TMEM200A (11744735_a_at) / Fold change /veh TMEM200A (11744735_a_at) / RFU CCDC152 (11751479_a_at) / Fold change /veh CCDC152 (11751479_a_at) / RFU FAM211A (11726209_a_at) / Fold change /veh FAM211A (11726209_a_at) / RFU RGS16 (11746705_a_at) / Fold change /veh RGS16 (11746705_a_at) / RFU VCAN (11755009_s_at) / Fold change /veh VCAN (11755009_s_at) / RFU RHOB (11743442_s_at) / Fold change /veh RHOB (11743442_s_at) / RFU RGS16 (11720943_a_at) / Fold change /veh RGS16 (11720943_a_at) / RFU RGS16 (11720944_at) / Fold change /veh RGS16 (11720944_at) / RFU, VPS4B / Fold change vs veh, VPS4B / RFU, CREB1 / Fold change vs veh, CREB1 / RFU, DNAJC13 / Fold change vs veh, DNAJC13 / RFU, GNAQ / Fold change vs veh, GNAQ / RFU, CDK5R1 / Fold change vs veh, CDK5R1 / RFU, ZRANB3 / Fold change vs veh, ZRANB3 / RFU, CUL4A / Fold change vs veh, CUL4A / RFU, CCNY / Fold change vs veh, CCNY / RFU, UFL1 / Fold change vs veh, UFL1 / RFU, COG3 / Fold change vs veh, COG3 / RFU, DIAPH2 / Fold change vs veh, DIAPH2 / RFU, SKA2 / Fold change vs veh, SKA2 / RFU, AFF3 / Fold change vs veh, AFF3 / RFU, LMF1 / Fold change vs veh, LMF1 / RFU, IPO11 / Fold change vs veh, IPO11 / RFU, DFFB / Fold change vs veh, DFFB / RFU, FOXP1 / Fold change vs veh, FOXP1 / RFU, CARD8 / Fold change vs veh, CARD8 / RFU, STRN3 / Fold change vs veh, STRN3 / RFU, ADK / Fold change vs veh, ADK / RFU, RASSF2 / Fold change vs veh, RASSF2 / RFU, WIPF1 / Fold change vs veh, WIPF1 / RFU, LARP1B / Fold change vs veh, LARP1B / RFU, RASA1 / Fold change vs veh, RASA1 / RFU, RB1 / Fold change vs veh, RB1 / RFU, PPFIA1 / Fold change vs veh, PPFIA1 / RFU, MAT2A / Fold change vs veh, MAT2A / RFU, CCT5 / Fold change vs veh, CCT5 / RFU, WDR92 / Fold change vs veh, WDR92 / RFU, CUX1 / Fold change vs veh, CUX1 / RFU, TTC7A / Fold change vs veh, TTC7A / RFU, TMEM135 / Fold change vs veh, TMEM135 / RFU, DEPTOR / Fold change vs veh, DEPTOR / RFU, CPM / Fold change vs veh, CPM / RFU, DNAJB6 / Fold change vs veh, DNAJB6 / RFU, CACNA2D3 / Fold change vs veh, CACNA2D3 / RFU, DTX4 / Fold change vs veh, DTX4 / RFU, TFCP2 / Fold change vs veh, TFCP2 / RFU, GMCL1 /// GMCL1P1 / Fold change vs veh, GMCL1 /// GMCL1P1 / RFU, AEBP2 / Fold change vs veh, AEBP2 / RFU, SNHG1 /// SNORD22 /// SNORD25 /// SNORD26 /// SNORD27 /// SNORD28 /// SNORD29 /// SNORD31 / Fold change vs veh, SNHG1 /// SNORD22 /// SNORD25 /// SNORD26 /// SNORD27 /// SNORD28 /// SNORD29 /// SNORD31 / Fold change (Aza/veh), C12orf56 (ProbeSet 11735607_a_at) / Fold change (ACY-1035/veh), C12orf56 (ProbeSet 11735607_a_at) / Fold change (Aza/veh), FGFR1OP (ProbeSet 11751329_s_at) / Fold change (ACY-1035/veh), FGFR1OP (ProbeSet 11751329_s_at) / Fold change (Aza/veh), VPS36 (ProbeSet 11739960_a_at) / Fold change (ACY-1035/veh), VPS36 (ProbeSet 11739960_a_at) / RFU SYPL1 (11715823_x_at) / Fold change /veh SYPL1 (11715823_x_at) / RFU IGFBP7 (11715501_s_at) / Fold change /veh IGFBP7 (11715501_s_at) / RFU REEP3 (11722064_at) / Fold change /veh REEP3 (11722064_at) / RFU IGLL1 (11728026_x_at) / Fold change /veh IGLL1 (11728026_x_at): dose or concentration left out as unconfirmed", "conditions": "MV-4-11 cells, 48 hours"}
{"molecule": "Nc1ncn([C@@H]2O[C@H](CO)[C@@H](O)[C@H]2O)c(=O)n1", "note": "[azacitidine]", "values": [{"measurement": "Fold change /veh ORM1 (11744905_x_at)", "value": 1.26}]}
